Patent US20250049798A1, “WEE1 PROTEIN KINASE DEGRADATION AGENT AND USE THEREOF” (HANGZHOU GLUBIO PHARMACEUTICAL CO. LTD., priority 2021, published 2025)
Where two headings read alike, the source gives them in different places.

Target: HiBiT tagged Wee1 (Homo sapiens, UniProt P30291)
Test: Wee1 protein degradation assay (HiBiT assay)
Format: cell-based
[1] = engineered HT-1080 cells, 20 hours
[2] = engineered HT-1080 cells, 20 hours, maximum percentage of Wee1 degradation, read-out: HiBiT Wee1: Dmax

Sequence of HiBiT tagged Wee1 (P30291 whole entry): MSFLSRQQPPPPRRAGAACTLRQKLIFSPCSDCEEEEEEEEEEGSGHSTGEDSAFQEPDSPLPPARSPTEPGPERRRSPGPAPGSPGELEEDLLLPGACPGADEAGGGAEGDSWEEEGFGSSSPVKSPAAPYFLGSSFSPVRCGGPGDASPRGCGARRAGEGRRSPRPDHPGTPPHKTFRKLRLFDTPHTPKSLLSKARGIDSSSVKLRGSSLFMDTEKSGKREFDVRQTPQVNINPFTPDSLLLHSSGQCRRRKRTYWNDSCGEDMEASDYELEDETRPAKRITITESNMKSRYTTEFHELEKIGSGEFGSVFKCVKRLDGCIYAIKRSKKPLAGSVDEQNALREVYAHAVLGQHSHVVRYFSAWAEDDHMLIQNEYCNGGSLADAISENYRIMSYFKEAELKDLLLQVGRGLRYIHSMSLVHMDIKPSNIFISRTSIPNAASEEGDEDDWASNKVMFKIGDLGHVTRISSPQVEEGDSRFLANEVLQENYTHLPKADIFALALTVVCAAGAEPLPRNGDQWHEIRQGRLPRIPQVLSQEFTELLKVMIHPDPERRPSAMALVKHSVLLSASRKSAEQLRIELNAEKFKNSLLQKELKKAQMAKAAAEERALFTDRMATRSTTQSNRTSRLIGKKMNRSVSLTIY

Row | Compound | DC50 [1] | Dmax [2] | Dmax (HT-1080, read-out: HiBiT Wee1: Dmax)
1 | O=C1CCC(N2C(=O)c3ccc(N4CCC(CN5CCc6cc(Nc7ncc8c(=O)n(-c9c(Cl)cccc9Cl)c9nccn9c8n7)ccc6C5)CC4)cc3C2=O)C(=O)N1 (centres unmarked) [Compound 1] | > 1000 nM | < 50% | 
2 | O=C1CCC(N2C(=O)c3ccc(N4CCC(CN5CCc6ccc(Nc7ncc8c(=O)n(-c9c(Cl)cccc9Cl)c9nccn9c8n7)cc6C5)CC4)cc3C2=O)C(=O)N1 (centres unmarked) [Compound 5] | > 1000 nM | < 50% | 
3 | C=CCn1c(=O)c2cnc(Nc3ccc(N4CCC(N5CCN(c6cc7c(cc6F)C(=O)N(C6CCC(=O)NC6=O)C7=O)CC5)CC4)cc3)nc2n1-c1cccc(C(C)(C)O)n1 (centres unmarked) [Compound 78] | 100 to 1000 nM | 50 to 75% | 
4 | C=CCn1c(=O)c2cnc(Nc3ccc4c(c3)CN(CCCCc3cccc5c3CN(C3CCC(=O)NC3=O)C5=O)CC4)nc2n1-c1cccc(C(C)(C)O)n1 (centres unmarked) [Compound 49] | > 1000 nM | < 50% | 
5 | C=CCn1c(=O)c2cnc(Nc3ccc4c(c3)CN(CCCNc3ccc5c(c3)C(=O)N(C3CCC(=O)NC3=O)C5=O)CC4)nc2n1-c1cccc(C(C)(C)O)n1 (centres unmarked) [Compound 23] | > 1000 nM | < 50% | 
6 | C=CCn1c(=O)c2cnc(Nc3ccc(N4CCC(CN5CCN(c6cccc7c(N8CCC(=O)NC8=O)nn(C)c67)CC5)CC4)cc3)nc2n1-c1cccc(C(C)(C)O)n1 [Compound 118] | 100 to 1000 nM | 50 to 75% | 
7 | COc1ccc(C(=O)N2CCC(CCN3CCC(c4ccc(Nc5ncc6c(=O)n(-c7c(Cl)cccc7Cl)c7nccn7c6n5)cc4)CC3)CC2)cc1N1CCC(=O)NC1=O [Compound 28] | > 1000 nM | 50 to 75% | 
8 | C=CCn1c(=O)c2cnc(Nc3ccc4c(c3)CN(CCCCNc3ccc5c(c3)C(=O)N(C3CCC(=O)NC3=O)C5=O)CC4)nc2n1-c1cccc(C(C)(C)O)n1 (centres unmarked) [Compound 24] | > 1000 nM |  | < 50%
9 | C=CCn1c(=O)c2cnc(Nc3ccc(C4CCN(C5CCN(c6ccc7c(c6)C(=O)N(C6CCC(=O)NC6=O)C7=O)C5)CC4)cc3)nc2n1-c1cccc(C(C)(C)O)n1 (centres unmarked) [Compound 39] | 100 to 1000 nM | 50 to 75% | 
10 | O=C1CCC(N2C(=O)c3ccc(N4CCC(CCN5CCC(c6ccc(Nc7ncc8c(=O)n(-c9c(Cl)cccc9Cl)c9nccn9c8n7)cc6)CC5)CC4)cc3C2=O)C(=O)N1 (centres unmarked) [Compound 15] | 100 to 1000 nM | 50 to 75% | 
11 | C=CCn1c(=O)c2cnc(Nc3ccc(N4CCN(C5CCN(c6ccc(NC7CCC(=O)NC7=O)cc6F)CC5)[C@H](C)C4)cc3)nc2n1-c1ccc2c(n1)[C@@](O)(CC)CC2 (some centres unmarked) [Compound 186] | < 100 nM | > 75% | 
12 | C=CCn1c(=O)c2cnc(Nc3ccc(N4CCC(CN5CCC(c6cccc7c6n(C)c(=O)n7C6CCC(=O)NC6=O)CC5)CC4)cc3)nc2n1-c1ccc2c(n1)[C@](O)(CC)CC2 (some centres unmarked) [Compound 53] | > 1000 nM | < 50% | 
13 | C=CCn1c(=O)c2cnc(Nc3ccc(N4CCN(CCC5CCN(C(=O)c6ccc(OC)c(N7CCC(=O)NC7=O)c6)CC5)CC4)cc3)nc2n1-c1cccc(C(C)(C)O)n1 [Compound 29] | > 1000 nM | < 50% | 
14 | COc1ccc(C(=O)N2CCC(CN3CCC(c4ccc(Nc5ncc6c(=O)n(-c7c(Cl)cccc7Cl)c7nccn7c6n5)cc4)CC3)CC2)cc1N1CCC(=O)NC1=O [Compound 26] | > 1000 nM | < 50% | 

Now from value to compound, other results behind:

Row | DC50 [1] | Dmax [2] | Compound | Dmax (HT-1080, read-out: HiBiT Wee1: Dmax)
15 | < 100 nM | > 75% | C=CCn1c(=O)c2cnc(Nc3ccc(N4CCN(CC5CCN(c6ccc(NC7CCC(=O)NC7=O)cc6F)CC5)CC4)cc3)nc2n1-c1ccc2c(n1)[C@@](C)(O)CC2 (some centres unmarked) [Compound 113] | 
16 | < 100 nM | > 75% | C=CCn1c(=O)c2cnc(Nc3ccc(N4CCN(CC5CCN(c6c(F)cc(NC7CCC(=O)NC7=O)cc6F)CC5)CC4)cc3)nc2n1-c1ccc2c(n1)[C@@](O)(CC)CC2 (some centres unmarked) [Compound 175] | 
17 | < 100 nM | > 75% | C=CCn1c(=O)c2cnc(Nc3ccc(N4CCC(CN5CCN(c6cc7c(cc6F)c(N6CCC(=O)NC6=O)nn7C)CC5)CC4)cc3)nc2n1-c1ccc2c(n1)[C@@](O)(CC)CC2 [Compound 201] | 
18 | < 100 nM | 50 to 75% | C=CCn1c(=O)c2cnc(Nc3ccc(N4CCC(CN5CCN(c6ccc(NC7CCC(=O)NC7=O)cc6F)CC5)CC4)cc3)nc2n1-c1ccc2c(n1)[C@](C)(O)CC2 (single isomer, unassigned) [Compound 120] | 
19 | < 100 nM | > 75% | C=CCn1c(=O)c2cnc(Nc3ccc(N4CCC(CN5CCN(c6ccc(NC7CCC(=O)NC7=O)cc6F)CC5)CC4)c(C)c3)nc2n1-c1ccc2c(n1)[C@](C)(O)CC2 (some centres unmarked) [Compound 132] | 
20 | < 100 nM | > 75% | C=CCn1c(=O)c2cnc(Nc3ccc(N4CCN(CC5CCN(c6ccc(NC7CCC(=O)NC7=O)cc6F)CC5)CC4)cc3)nc2n1-c1cccc(OC)n1 (centres unmarked) [Compound 205] | 
21 | < 100 nM | 50 to 75% | C=CCn1c(=O)c2cnc(Nc3ccc(N4CCC(CN5CCN(c6ccc7c(c6)C(=O)N(C6CCC(=O)NC6=O)C7=O)CC5)CC4)cc3)nc2n1-c1cccc(C(C)(C)O)n1 (centres unmarked) [Compound 56] | 
22 | < 100 nM | > 75% | C=CCn1c(=O)c2cnc(Nc3ccc(N4CCN(CC5CN(c6ccc(NC7CCC(=O)NC7=O)cc6F)C5)CC4)cc3)nc2n1-c1cccc(C(C)(C)O)n1 (centres unmarked) [Compound 122] | 
23 | < 100 nM | > 75% | C=CCn1c(=O)c2cnc(Nc3ccc(N4CCC(N5CC[C@H](c6ccc(NC7CCC(=O)NC7=O)cc6F)C(F)(F)C5)CC4)cc3)nc2n1-c1ccc2c(n1)[C@@](O)(CC)CC2 (single isomer, unassigned) [Compound 183] | 
24 | < 100 nM | 50 to 75% | C=CCn1c(=O)c2cnc(Nc3ccc(N4CCN(CC5CCN(c6cccc7c(N8CCC(=O)NC8=O)nn(C)c67)CC5)CC4)cc3)nc2n1-c1ccc2c(n1)[C@@](O)(CC)CC2 [Compound 124] | 
25 | < 100 nM | > 75% | C=CCn1c(=O)c2cnc(Nc3ccc(N4CCN(CC5CCN(c6ccc(NC7CCC(=O)NC7=O)cc6F)CC5)CC4)c(Cl)c3)nc2n1-c1ccc2c(n1)[C@@](O)(CC)CC2 (some centres unmarked) [Compound 167] | 
26 | < 100 nM | 50 to 75% | C=CCn1c(=O)c2cnc(Nc3ccc(N4CCN(CCNc5ccc6c(c5)C(=O)N(C5CCC(=O)NC5=O)C6=O)CC4)cc3)nc2n1-c1cccc(C(C)(C)O)n1 (centres unmarked) [Compound 11] | 
27 | < 100 nM | 50 to 75% | C=CCn1c(=O)c2cnc(Nc3ccc(N4CCN(CC5CCN(c6ccc7c(N8CCC(=O)NC8=O)nn(C)c7c6)CC5)CC4)c(C)c3)nc2n1-c1ccc2c(n1)[C@@](C)(O)CC2 [Compound 138] | 
28 | < 100 nM | > 75% | C=CCn1c(=O)c2cnc(Nc3ccc(N4CCC(N5CC[C@@H](c6ccc(NC7CCC(=O)NC7=O)cc6F)C(F)(F)C5)CC4)cc3)nc2n1-c1ccc2c(n1)[C@@](O)(CC)CC2 (single isomer, unassigned) [Compound 184] | 
29 | < 100 nM | > 75% | C=CCn1c(=O)c2cnc(Nc3ccc(N4CCN(CCCOc5ccc6c(c5)C(=O)N(C5CCC(=O)NC5=O)C6=O)CC4)cc3)nc2n1-c1cccc(C(C)(C)O)n1 (centres unmarked) [Compound 62] | 
30 | < 100 nM | > 75% | C=CCn1c(=O)c2cnc(Nc3ccc(N4CCN(C5CC6(C5)CN(c5ccc7c(N8CCC(=O)NC8=O)nn(C)c7c5)C6)CC4)cc3)nc2n1-c1ccc2c(n1)[C@@](O)(CC)CC2 [Compound 170] | 
31 | < 100 nM | > 75% | C=CCn1c(=O)c2cnc(Nc3ccc(N4CCN(CC5CCN(c6ccc(NC7CCC(=O)NC7=O)cc6F)CC5)CC4)c(C)c3)nc2n1-c1ccc2c(n1)[C@](C)(O)CC2 (some centres unmarked) [Compound 130] | 
